Assay results reported in patent publication US4999374A, “Veterinary treatment” (priority 1987, dated 1991).

Tests used:
T. hyodysenteriae (P18a) = assay: Efficacy of M139603 in pigs at low doses (Example 7, Table 7); assay type: in vivo; parameters: Group weight / Ave. daily weight-gain: unit not given here; settings: for Mortality (+ culls): 42 days, 6 pigs
Experimental: In this studY two groups (Gp.1 and Gp.2) of pigs, six per group, were experimentally infected with a pathogenic strain of T. hyodysenteriae (P18a, IRAD(Institute for Animal Health), Compton, Berks, U.K.) by oro-gastric inoculation of 50 ml of a culture suspension (1×10^7cfu/ml) of the organism into each animal. From post-infection day (PID) to PID 35 the animals in Gp. 1 were offered ad lib a feed comprising "Kwikwean" meal (Rank, Hovis, McDougall Research Ltd; containing no antibiotics) incorporated with M139603 at 25 ppm. Gp.2 remained on unmedicated feed throughout the trial. Drug efficacy was measured primarily on the basis of the number of diarrhoea or dysentery days in relation to pig-days within a group and on the average daily weight gain per pig, in each group over the period of the trial. The daily gain was calculated by dividing group gain at end of trial (PID 35) by the total number of pig-days from PID 1 to PID 35. […] In the experiment the pigs were exposed to high infective doses of the organism a day before the introduction of the drug. Under normal circumstances preventive dose-regimes are applied on animals at risk and not on those already infected.
In this study, eighteen pigs were allocated to three equal groups (Gp.1-3). Feed incorporated with the drug at 25 or 15 ppm was offered to Gp.1 and 2, respectively, on thirty-eight consecutive days commencing six hours pre-infection. Gp.3 remained on unmedicated feed throughout the trial. The pigs were infected with T. hyodysenteriae (strain "P18a") using methods and materials similar to those applied in Example 5. However, seven days following this exposure (post-infection day 7), over a period of seven consecutive days, the pigs in Gp. 1 and 2 were allowed to co-mingle for about two hours each day with some dysenteric "seeder pigs" in a nearby pen. Drug efficacy, as in Example 6, was assessed primarily on the basis of the total number of diarrhoea/dysentery days per group and on the basis of average daily weight gain per pig per group. The results are indicative of the good efficacy of M139603 even at a level as low as 15 ppm feed in preventing swine dysentery. At this dose-level, the daily drug-intake is unlikely to be more than 0.9 mg/kg/body-weight, if daily feed is calculated at 6% of a pig's body-weight.
In this experiment twenty-four pigs were split into four equal groups (Gp. 1-4). Gp. 1 and 2 were offered the drug at 15 or 10 ppm feed on forty-two consecutive days, commencing six hours pre-infection. Gp. 3 (infected) and Gp. 4 (uninfected) remained on unmedicated feed throughout. The infection procedures with T. hyodysenteriae (P18a) were similar to those applied above. Only three groups, Gp. 1, 2 and 3 were infected. Gp. 4 remained uninfected in a well-isolated pen throughout the trial period. Three days following the initial exposure to the infection (post-infection day 3), over a period of five continuous days, the pigs in Gp. 1, 2 and 3 were allowed to co-mingle with dysenteric "seeder pigs" housed in a separate pen. Drug efficacy was measured using the criteria applied in the Examples 5 and 6. […] Thereafter, the differences narrowed, primarily due to the placement of Gp. 3 on tiamulin to prevent further weight losses, and consequent deaths. Despite the number of diarrhoea days observed for Gp. 1 (6.8%) and Gp.

T. hyodysenteriae = assay: Comparative efficacy of M139603 and monensin in experimentally infected mice (Example 2, Table 2); assay type: in vivo, mice (strain MF-1); settings: 25 ppm feed
Source text: The infection leads to varying degrees of caecitis, the lesions of which are apparent in animals killed on or about the sixth day post-infection. Caecal specimens examined by bacteriological culture techniques applicable for enumeration of organisms reveal the presence of high populations of T.hyodysenteriae. This disease-model was used in experiments to compare the efficacy of M139603 with that of salinomycin, lasalocid and monensin in suppressing the infection.
In this study, the efficacy of M139603 was tested at 25 ppm feed and that of monensin (Eli Lilly) at 50 or 100 ppm. Groups of infected mice, five per group, were offered the drugs in the feed on five continuous days before killing. Caecal materials were subjected to bacteriological examination to enumerate the populations of viable treponemes per gram of material. […] The group mean in respect of the unmedicated groups was 7.9 cfu/g.

CO[C@@H](C)[C@H]1C[C@H](C)[C@H]([C@@H](C)/C=C/[C@@H]2CC[C@@H](C)[C@H](/C(=C/[C@H]3CCC[C@@H](C)[C@@H]3[C@H](C)C(=O)C3=C(O)COC3=O)CO)O2)O1 [Analogue M139603, tetronasin]
Ave. daily weight-gain (T. hyodysenteriae (P18a); 10 ppm feed group, post-infection day 44 to 57, inclusive (after withdrawal)): 0.65
Mortality (+ culls) (T. hyodysenteriae (P18a); 10 ppm feed): 0
Ave. daily weight-gain (T. hyodysenteriae (P18a); 10 ppm feed, day 4 pre-infection to day 22 post-infection): 0.59
Percent diarrhoea/dysentery days (T. hyodysenteriae (P18a); 10 ppm feed, post-infection day 1 to 21): 4.8%
No. diarrhoea/dysentery days (T. hyodysenteriae (P18a); 10 ppm feed, post-infection day 1 to 21 (126 pig-days)): 6 days
Percent diarrhoea/dysentery days (T. hyodysenteriae (P18a); 10 ppm feed, post-infection day 1 to 42): 11.9%
No. diarrhoea/dysentery days (T. hyodysenteriae (P18a); 10 ppm feed, post-infection day 1 to 42 (252 pig-days)): 30 days
Group weight (T. hyodysenteriae (P18a); 10 ppm feed, post-infection day 21, start 66.0): 161.0
Ave. daily weight-gain (T. hyodysenteriae (P18a); 10 ppm feed, post-infection day 23 to 43, inclusive): 0.83
Group weight (T. hyodysenteriae (P18a); 10 ppm feed, post-infection day 43 (1 day from withdrawal of medication)): 265.0
Average daily weight-gain vs uninfected, unmedicated group (T. hyodysenteriae (P18a); 15 or 10 ppm feed): exceeded that recorded for pigs in the uninfected, unmedicated group
Weight gain vs unmedicated, infected group (T. hyodysenteriae (P18a); 15 or 10 ppm feed, by post-infection day 21): Significant weight gain differences
Ave. daily weight-gain (T. hyodysenteriae (P18a); 15 ppm feed group, post-infection day 44 to 57, inclusive (after withdrawal)): 0.86
Mortality (+ culls) (T. hyodysenteriae (P18a); 15 ppm feed): 0
Ave. daily weight-gain (T. hyodysenteriae (P18a); 15 ppm feed, day 4 pre-infection to day 22 post-infection): 0.56
Percent diarrhoea/dysentery days (T. hyodysenteriae (P18a); 15 ppm feed, post-infection day 1 to 21): 4%
No. diarrhoea/dysentery days (T. hyodysenteriae (P18a); 15 ppm feed, post-infection day 1 to 21 (126 pig-days)): 5 days
Percent diarrhoea/dysentery days (T. hyodysenteriae (P18a); 15 ppm feed, post-infection day 1 to 42): 6.8%
No. diarrhoea/dysentery days (T. hyodysenteriae (P18a); 15 ppm feed, post-infection day 1 to 42 (252 pig-days)): 17 days
Group weight (T. hyodysenteriae (P18a); 15 ppm feed, post-infection day 21, start 63.7): 153.7
Ave. daily weight-gain (T. hyodysenteriae (P18a); 15 ppm feed, post-infection day 23 to 43, inclusive): 0.81
Group weight (T. hyodysenteriae (P18a); 15 ppm feed, post-infection day 43 (1 day from withdrawal of medication)): 225.5
Group weight (T. hyodysenteriae (P18a); 15 ppm feed, post-infection day 57 (15 days from withdrawal of medication)): 327.5
Feed level found to be effective (lowest) (T. hyodysenteriae (P18a); in the feed): 10 ppm
Suppression of infection (T. hyodysenteriae): suppressed the infection
Mean (log10) viable treponemes per gram caecum & contents (T. hyodysenteriae; 5 days, group mean): 0 log10 per gram
Viable treponemes per gram caecum & contents (T. hyodysenteriae; 5 days, individual mice, limit of detection <1.0 × 10^2): negative
